Results reported in patent publication US10954405B2, “Water-based diacetylene ink, hydrochromic polydiacetylene paper prepared using the ink, and use thereof” (INDUSTRY-UNIVERSITY COOPERATION FOUNDATION HANYANG …, priority 2015, dated 2021).

Assay: Solubility of DA-1 in water dependent upon temperature (FIG. 6C)
Format: physicochemical
Details: sample of DA-1 and water in a plastic bag on a paper printed with "A", temperature elevated; clearer at 25° C. and 30° C.
Protocol: FIGS. 6A-6C are a set of photographs illustrating the temperature-dependent reaction of the moisture test paper manufactured according to the moisture test paper manufacture example and solubility of DA-1 in water dependent upon temperature.
Referring to FIG. 6C when a sample including DA-1 and water was put into a plastic bag, the plastic bag was put on a paper on which “A” was printed, and temperature was elevated, the lower “A” began to be observed from about 20° C. and became clearer as temperature was elevated to 25° C. and 30° C.

temperature from which DA-1 dissolves in water (printed "A" under the sample began to be observed): about 20 °C
SMILES: CCCCCCCCCCCCC#CC#CCCCCCCCCC(=O)NCCCn1cc[n+](CC#N)c1 [DA-1]
